Results from patent US20230002372A1, “AZAINDOLE CARBOXAMIDE COMPOUNDS FOR THE TREATMENT OF MYCOBACTERIAL INFECTIONS” (THE GLOBAL ALLIANCE FOR TB DRUG DEVELOPMENT, INC., priority 2019, published 2023).
Converted amounts (≈) assume the structure as drawn.

Columns and labels:
M tb H37Rv = assay: MIC determination against M tb H37Rv (green fluorescent protein reporter assay; MIC-MABA); assay type: cell-based, Mycobacterium tuberculosis; conditions: Mycobacterium tuberculosis, H37RV, 240 h, read-out: M. TB H37Rv: MIC-MABA: MIC, M. tb H37Rv; 7H9 broth; 10 days exposure; MIC = lowest concentration inhibiting fluorescence by 90%
Mycobacterium abscessus = assay: MIC against Mycobacterium abscessus (Mab_ATCC, MHII broth); assay type: cell-based; conditions: Mycobacteroides abscessus; Mycobacterium abscessus ATCC strain; Mueller-Hinton broth (MHII)
Source text: Key for Tables: MIC: Minimum Inhibitory Concentration; MABA: microplate-based Alamar Blue assay; Mab: Mycobacterium abscessus; ATCC: American Type Culture Collection; and MHII: Mueller-Hinton broth.

Structure (SMILES)	MIC (M tb H37Rv) [µg/mL]	MIC (Mycobacterium abscessus) [µg/mL]
C[Si]1(C)CCC(NC(=O)c2cc3ccc(OC4CC4)nc3[nH]2)CC1 [MPL-464, 6-(cyclopropoxy)-N-(1,1-dimethylsilinan-4-yl)-1H-pyrrolo[2,3-b]pyridine-2-carboxamide]	0.124 (≈ 0.361 µM)	1 (≈ 2.91 µM)
COc1cc(F)c2cc(C(=O)NC3CC[Si](C)(C)CC3)[nH]c2n1 [MPL-468, N-(1,1-dimethylsilinan-4-yl)-4-fluoro-6-methoxy-1H-pyrrolo[2,3-b]pyridine-2-carboxamide]	0.023 (≈ 0.0686 µM)	0.12 (≈ 0.358 µM)
Cc1nc2[nH]c(C(=O)NC3CC[Si](C)(C)CC3)cc2c(F)c1C [MPL-471, N-(1,1-dimethylsilinan-4-yl)-4-fluoro-5,6-dimethyl-1H-pyrrolo[2,3-b]pyridine-2-carboxamide]	0.069 (≈ 0.207 µM)	1 (≈ 3 µM)
